Results on 19 compounds are retold here after article PMC8025945 (Journal of medicinal chemistry, 2017).

The term GI50 denotes the concentration that inhibits growth by half.

In data set [1] the target is T1, recombinant Top1 (Homo sapiens, UniProt P11387).
T1 sequence (P11387 1-765): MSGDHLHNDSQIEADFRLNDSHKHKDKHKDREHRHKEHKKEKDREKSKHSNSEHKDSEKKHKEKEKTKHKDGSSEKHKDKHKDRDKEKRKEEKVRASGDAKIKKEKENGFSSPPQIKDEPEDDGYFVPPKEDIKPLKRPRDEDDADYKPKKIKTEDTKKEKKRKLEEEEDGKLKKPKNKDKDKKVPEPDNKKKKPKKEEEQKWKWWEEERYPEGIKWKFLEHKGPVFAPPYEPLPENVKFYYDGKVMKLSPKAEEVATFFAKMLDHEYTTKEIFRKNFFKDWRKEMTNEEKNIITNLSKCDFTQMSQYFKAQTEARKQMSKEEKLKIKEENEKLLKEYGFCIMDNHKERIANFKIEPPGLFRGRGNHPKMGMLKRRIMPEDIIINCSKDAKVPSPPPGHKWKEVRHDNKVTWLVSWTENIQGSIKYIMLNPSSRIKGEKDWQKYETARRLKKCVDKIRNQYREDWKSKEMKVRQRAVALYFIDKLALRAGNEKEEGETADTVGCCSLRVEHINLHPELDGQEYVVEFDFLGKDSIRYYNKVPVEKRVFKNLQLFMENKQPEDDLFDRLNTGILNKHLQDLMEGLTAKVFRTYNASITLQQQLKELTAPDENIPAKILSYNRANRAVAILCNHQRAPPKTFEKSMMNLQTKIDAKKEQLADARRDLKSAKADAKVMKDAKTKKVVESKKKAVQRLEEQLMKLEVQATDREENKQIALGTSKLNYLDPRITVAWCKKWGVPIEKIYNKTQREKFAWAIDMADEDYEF
Kind of data set: Top1-mediated DNA cleavage assay. The class given is biochemical. The note with it: semiquantitative scale relative to 1 μM MJ-III-65 (6) and 1 μM camptothecin (1).

The test system of data set [2] is zebrafish embryos. As to conditions: statistical comparison of 9, 16b and 17b.
Data set [3] concerns SF-539. Nature of the data set: NCI-60 human tumor cell line screen, CNS SF-539. As to conditions: read-out: cytotoxicity (GI50) CNS SF-539; 50% growth inhibition.
The test system of data set [4] is HOP-62. Kind of data set: NCI-60 human tumor cell line screen, lung HOP-62. The note with it: read-out: cytotoxicity (GI50) lung HOP-62; 50% growth inhibition.
Data set [5] deals with SN12C. Kind of data set: NCI-60 human tumor cell line screen, renal SN12C. As to conditions: read-out: cytotoxicity (GI50) renal SN12C; 50% growth inhibition.
Data set [6] relates to MCF-7. Kind of data set: NCI-60 human tumor cell line screen, breast MCF-7. The note with it: read-out: cytotoxicity (GI50) breast MCF-7; 50% growth inhibition.
In data set [7] the test system is HCT-116. Kind of data set: NCI-60 human tumor cell line screen, colon HCT-116. As to conditions: read-out: cytotoxicity (GI50) colon HCT-116; 50% growth inhibition.
Data set [8] concerns OVCAR-3. Kind of data set: NCI-60 human tumor cell line screen, ovarian OVCAR-3. The note with it: read-out: cytotoxicity (GI50) ovarian OVCAR-3; 50% growth inhibition.
Data set [9] concerns DU-145. Kind of data set: NCI-60 human tumor cell line screen, prostate DU-145. The note with it: read-out: cytotoxicity (GI50) prostate DU-145; 50% growth inhibition.
The test system of data set [10] is UACC-62. Nature of the data set: NCI-60 human tumor cell line screen, melanoma UACC-62. The note with it: read-out: cytotoxicity (GI50) melanoma UACC-62; 50% growth inhibition.

For `COc1cnc2c(c1)C(=O)c1c-2n(CCCN2CCC(O)CC2)c(=O)c2cc(Cl)ccc12` [compound 16d, 3-Chloro-6-(3-(4-hydroxypiperidin-1-yl)propyl)-9-methoxy-5H-pyrido[3′,2′:4,5]cyclopenta[1,2-c]isoquinoline-5,11(6H)-dione], the “enzyme inhibitory activity Top1 (compound-induced DNA cleavage score)” value (“enzyme inhibitory activity Top1” below) in data set [1] is on record as “++++”.

Take `COc1cnc2c(c1)C(=O)c1c-2n(CCCN2CCOCC2)c(=O)c2cc(Cl)ccc12` [compound 16a, 3-Chloro-9-methoxy-6-(3-morpholinopropyl)-5H-pyrido[3′,2′:4,5]cyclopenta[1,2-c]isoquinoline-5,11(6H)-dione]: the “enzyme inhibitory activity Top1” value in [1] is “+++”.

`CNCCCn1c2c(c3ccc(F)cc3c1=O)C(=O)c1cc(OC)cnc1-2` [17g, 3-Fluoro-9-methoxy-6-(3-(methylamino)propyl)-5H-pyrido[3′,2′:4,5]cyclopenta[1,2-c]isoquinoline-5,11(6H)-dione]: the “enzyme inhibitory activity Top1” value in data set [1] is “+”. On to `COc1cnc2c(c1)C(=O)c1c-2n(CCCNC2=NCCS2)c(=O)c2cc(F)ccc12` [17c, 3-Fluoro-6-(3-((4,5-dihydrothiazol-2-yl)amino)propyl)-9-methoxy-5H-pyrido[3′,2′:4,5]cyclopenta[1,2-c]isoquinoline-5,11(6H)-dione], for which the “enzyme inhibitory activity Top1” value in data set [1] is listed as “++”. On the same count and under the same terms, the same measure for `COc1cnc2c(c1)C(=O)c1c-2n(CCCN2CCNCC2)c(=O)c2cc(Cl)ccc12` [16e, 3-Chloro-9-methoxy-6-(3-(piperazin-1-yl)propyl)-5H-pyrido[3′,2′:4,5]cyclopenta[1,2-c]isoquinoline-5,11(6H)-dione]: “+”; for `COc1cnc2c(c1)C(=O)c1c-2n(CCCN2CCCC2)c(=O)c2cc(F)ccc12` [17i, 3-Fluoro-9-methoxy-6-(3-(pyrrolidin-1-yl)propyl)-5H-pyrido[3′,2′:4,5]cyclopenta[1,2-c]isoquinoline-5,11(6H)-dione]: “+++”.

Consider `COc1cnc2c(c1)C(=O)c1c-2n(CCCNC2=NCCS2)c(=O)c2cc(Cl)ccc12` [compound 16c, 3-Chloro-6-(3-((4,5-dihydrothiazol-2-yl)amino)propyl)-9-methoxy-5H-pyrido[3′,2′:4,5]cyclopenta[1,2-c]isoquinoline-5,11(6H)-dione], for which the “enzyme inhibitory activity Top1” value in data set [1] is listed as “++”. As for `COc1cnc2c(c1)C(=O)c1c-2n(CCCNC(C)C)c(=O)c2cc(Cl)ccc12` [16f, 3-Chloro-9-methoxy-6-(3-(isopropylamino)propyl)-5H-pyrido[3′,2′:4,5]cyclopenta[1,2-c]isoquinoline-5,11(6H)-dione], in data set [1], the “enzyme inhibitory activity Top1” value was “++”. Still for that read-out and setting: under `COc1cnc2c(c1)C(=O)c1c-2n(CCCN2CCC(O)CC2)c(=O)c2cc(F)ccc12` [17d, 3-Fluoro-6-(3-(4-hydroxypiperidin-1-yl)propyl)-9-methoxy-5H-pyrido[3′,2′:4,5]cyclopenta[1,2-c]isoquinoline-5,11(6H)-dione] stands “+”; under `CCNCCCn1c2c(c3ccc(F)cc3c1=O)C(=O)c1cc(OC)cnc1-2` [17h, 6-(3-(Ethylamino)propyl)-3-fluoro-9-methoxy-5H-pyrido[3′,2′:4,5]cyclopenta[1,2-c]isoquinoline-5,11(6H)-dione], “++”. `COc1cnc2c(c1)C(=O)c1c-2n(CCCN2CCN(C)CC2)c(=O)c2cc(Cl)ccc12` [compound 16j, 3-Chloro-9-methoxy-6-(3-(4-methylpiperazin-1-yl)propyl)-5H-pyrido[3′,2′:4,5]cyclopenta[1,2-c]isoquinoline-5,11(6H)-dione]: the “enzyme inhibitory activity Top1” value in data set [1] was “+”. As for `COc1cnc2c(c1)C(=O)c1c-2n(CCCn2ccnc2)c(=O)c2cc(F)ccc12` [compound 17b, 3-Fluoro-6-(3-(1H-imidazol-1-yl)propyl)-9-methoxy-5H-pyrido[3′,2′:4,5]-cyclopenta[1,2-c]isoquinoline-5,11(6H)-dione], the “enzyme inhibitory activity Top1” value in data set [1] was “+++”. Also, in [2], the “lethality in zebrafish (comparison between compounds)” value is “lethality difference between them is not significant”. Taken in the same sequence, the figures for `COc1cnc2c(c1)C(=O)c1c-2n(CCCn2ccnc2)c(=O)c2cc(Cl)ccc12` [compound 16b, 3-Chloro-6-(3-(1H-Imidazol-1-yl)propyl)-9-methoxy-5H-pyrido[3′,2′:4,5]cyclopenta[1,2-c]isoquinoline-5,11(6H)-dione] were “+++” and “lethality difference between them is not significant”.

For `COc1cnc2c(c1)C(=O)c1c-2n(CCCN2CCNCC2)c(=O)c2cc(F)ccc12` [17e, 3-Fluoro-9-methoxy-6-(3-(piperazin-1-yl)propyl)-5H-pyrido[3′,2′:4,5]cyclopenta[1,2-c]isoquinoline-5,11(6H)-dione], the “enzyme inhibitory activity Top1” value in data set [1] is reported as “+”. As to `COc1cnc2c(c1)C(=O)c1c-2n(CCCNC(C)C)c(=O)c2cc(F)ccc12` [17f, 3-Fluoro-6-(3-(isopropylamino)propyl)-9-methoxy-5H-pyrido[3′,2′:4,5]cyclopenta[1,2-c]isoquinoline-5,11(6H)-dione], in [1], the “enzyme inhibitory activity Top1” value is given as “++”. For the compound `COc1cnc2c(c1)C(=O)c1c-2n(CCCN2CCOCC2)c(=O)c2cc([N+](=O)[O-])ccc12` [compound 10], the “enzyme inhibitory activity Top1” value in data set [1] is given as “++++”. The GI50 in data set [3] came to 35 nM; in [4], 51 nM; in [5], 43 nM; in data set [6], 20 nM; in data set [7] it was 50 nM; in data set [8] it was 110 nM. Moreover, the GI50 in [9] and in [10] was 40 nM in each case.

With `O=C1c2ccccc2-c2c1c1ccc([N+](=O)[O-])cc1c(=O)n2CCCn1ccnc1` [compound 7], the “enzyme inhibitory activity Top1” value in data set [1] is “++++”. Besides, the GI50 in data set [3] turned out to be 16 nM; in data set [4], 190 nM; in [5], 15 nM; in data set [6], 2170 nM; in data set [7], 274 nM; in data set [8], 864 nM. Also, the values for the GI50 in data set [9] and in data set [10] were 17 nM and 12 nM, respectively. As to `CC[C@@]1(O)C(=O)OCc2c1cc1n(c2=O)Cc2cc3ccccc3nc2-1` [compound 1, camptothecin], the “enzyme inhibitory activity Top1” value in data set [1] is given as “++++”. On to `COc1cnc2c(c1)C(=O)c1c-2n(CCCN2CCOCC2)c(=O)c2cc(F)ccc12` [17a, 3-Fluoro-9-methoxy-6-(3-morpholinopropyl)-5H-pyrido[3′,2′:4,5]cyclopenta[1,2-c]isoquinoline-5,11(6H)-dione], for which the “enzyme inhibitory activity Top1” value in data set [1] is listed as “+++”.
